The source of these data is PubChem BioAssay (NCI).

Holding throughout (experiment): NCI-60 cell line screen, 48 h
The subject of test [1] is NCI-H226 lung.
The test system of test [2] is RXF 393 renal.
Test [3] relates to T-47D breast.
The subject of test [4] is 786-0 renal.
The subject of test [5] is A498 renal.
Test [6] relates to CCRF-CEM leukemia.
The subject of test [7] is SK-MEL-5 melanoma.
Test [8] has as its system SF-295 CNS.

“And” between values parts separate entries of the source, which are not always exact repeats. Identical values can stand only once.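 Tested at 5 concentrations; 48 h exposure; 96-well plates; endpoints linearly interpolated, else capped at highest concentration. GI50 = concentration required for 50% inhibition of growth. At the TGI there is no net growth.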

In the case of `O=C(O)CCC1COc2ccccc2O1` (stereo not drawn), the TGI in test [1], in test [2], in test [3], in test [4], in test [5] and in test [6] was over 10 µM throughout. The TGI in test [7] and in test [8] was over 10 µM each time.

Take `Nc1nc2c(c3ncccc13)C(c1cccc(Cl)c1)Cc1ncccc1-2` (stereo not drawn): the GI50 was 19.6 µM in test [1]; 0.908 µM in test [2]; 3.28 µM in test [3]; 3.99 µM in test [4]; 1.35 µM in test [5]; 2.12 µM in test [6]. The GI50 in test [7] is 1.34 µM; in test [8], 2.21 µM. For the same molecule, the TGI worked out at 43.2 µM in test [1]; 4.9 µM in test [2]; 38.5 µM in test [3]; 26.5 µM in test [4]; 6.24 µM in test [5]; 48.6 µM in test [6]. Further, the TGI stood at 14.7 µM in test [7] and 11 µM in test [8].

`O=c1cccc(C#Cc2ccccc2)o1`: the GI50 was 13.2 µM in test [1]; 6.27 µM in test [2]; 8.67 µM in test [3]; 2.2 µM in test [4]; 2.38 µM in test [5]; 2.51 µM in test [7]. The GI50 in test [8] is 5.03 µM. Moreover, the TGI was over 36.3 µM in test [1]; 61.6 µM in test [2]; 46 µM in test [3]; 15 µM in test [4]; 7.02 µM in test [5]; over 44 µM in test [6]. The TGI in test [7] is 9.59 µM; in test [8] it was 13.8 µM.

As for `N#CC1C(=N)Cc2ccccc2-c2ccccc21` (stereo not drawn), the GI50 in test [1] was 11.4 µM; in test [2] it was 9.84 µM; in test [3], 5.61 µM; in test [4], 9.66 µM; in test [5] it was 2.78 µM; in test [6], 4.42 µM. The GI50 in test [7] is 3.35 µM; in test [8], 2.21 µM. Also, the TGI is over 100 µM in test [1]; 82.9 µM in test [2]; 73.3 µM in test [3]; 35.2 µM in test [4]; 14 µM in test [5]; over 100 µM in test [6]. Besides, the TGI in test [7] was found to be 11.1 µM; in test [8], 9.36 µM.

Consider `NC1=NC(c2ccccc2)N=C(Nc2ccccc2)N1` (stereo not drawn), for which the GI50 in test [1] was over 100 µM; in test [2] it was over 100 µM; in test [3], over 100 µM; in test [4], over 100 µM; in test [5] it was 11.4 µM; in test [6] it was over 100 µM. Besides, the GI50 is 93 µM in test [7] and over 100 µM in test [8]. In addition, the TGI in test [1], in test [2], in test [3], in test [4], in test [5] and in test [6] was over 100 µM in each case. Moreover, the TGI in test [7] and in test [8] was over 100 µM in each case.

For `CN1CCN(c2ccc(-c3cnc4c(-c5csc6ccccc56)cnn4c3)cc2)CC1`, the GI50 in test [1] is 13.5 µM; in test [2], 3.5 µM; in test [3] it was over 15 µM; in test [4], 4.35 µM; in test [5] it was 4.2 µM; in test [6] it was 4.43 µM. Moreover, the figures for the GI50 in test [7] and in test [8] were 2.48 µM and over 15 µM, respectively. Besides, the TGI in test [1] was over 15 µM; in test [2], 10.7 µM; in test [3], over 15 µM; in test [4], 12.3 µM; in test [5] it was over 15 µM; in test [6], over 15 µM. For the same molecule, the TGI in test [7] was 4.54 µM; in test [8], over 15 µM.

On to `C/C=C(\C)C(=O)O[C@@H]1C(O)[C@H]2OC(COC(=O)CCC(=O)CCCCCC[C@H](CCCCC)O[C@@H]3OC(C)[C@H](OC(C)=O)C(O)[C@H]3O2)[C@H]1OC(=O)/C=C/c1ccccc1` (stereo partly drawn), for which the GI50 is 0.0643 µM in test [1]; under 0.01 µM in test [2]; under 0.01 µM in test [3]; 0.028 µM in test [4]; 0.12 µM in test [5]; 0.408 µM in test [6]. Moreover, the GI50 in test [7] and in test [8] was under 0.01 µM in each case. The TGI is 7.38 µM in test [1]; 4.99 µM in test [2]; 0.761 µM in test [3]; 7.61 µM in test [4]; 5.59 µM in test [5]; over 100 µM in test [6]. Also, the TGI in test [8] was found to be 1.15 µM.

Consider `COc1cc(-c2oc3c(OC)c(OC)cc(O)c3c(=O)c2OC)ccc1O`, for which the GI50 in test [1] is 3.88 µM and 12.4 µM; in test [5], 3.38 µM and 16.6 µM; in test [7] it was 2.37 µM and 9.11 µM; in test [8], 3.24 µM and 8.34 µM. The TGI in test [1] was 9.68 µM and > 50 µM; in test [2], over 100 µM; in test [3] it was 34.4 µM; in test [4] it was over 100 µM; in test [5], > 100 µM and 42.4 µM; in test [6], > 100 µM and 21.4 µM. The TGI in test [7] is > 100 µM and 37.7 µM; in test [8], > 100 µM and 38.1 µM.

On to `Cc1cc(=O)oc2cc(OC(=O)Nc3ccc(Cl)c(Cl)c3)ccc12`, for which the TGI in test [1] is 46.6 µM; in test [2], 52.3 µM; in test [3], 68.3 µM; in test [4] it was over 100 µM; in test [5] it was 32.6 µM; in test [6], 51.6 µM. Besides, the figures for the TGI in test [7] and in test [8] were 29.7 µM and 74.4 µM, respectively.

Turning to `O=C1c2ccccc2S(=O)(=O)N1CSC(=S)N1CCCC1`, the GI50 in test [1] is over 100 µM; in test [2], over 100 µM; in test [3] it was over 72.4 µM; in test [4] it was over 100 µM; in test [5], over 100 µM; in test [6], 5.78 µM. Besides, the GI50 in test [7] is over 27.6 µM; in test [8], over 100 µM. For the same molecule, the TGI in test [1], in test [2], in test [3], in test [4], in test [5] and in test [6] was over 100 µM in each case. Also, the TGI in test [7] and in test [8] was over 100 µM throughout.
